IC50 data for 20 compounds are collected here from patent publication US5292737A, “N,N'-bis(sulfonamido)-2-amino-4-iminonaphthalen-1-ones and N,N'-bis(amido)-2-amino-4-iminonaphthalen-1-ones” (Sphinx Pharmaceuticals Corporation, priority 1992, dated 1994).

The assay has as its target T1, PKC isoenzyme ζ (Homo sapiens, UniProt Q05513).
T1 construct: made in house; host or cells: baculovirus-insect cell expression system
T1 sequence (Q05513 1-592): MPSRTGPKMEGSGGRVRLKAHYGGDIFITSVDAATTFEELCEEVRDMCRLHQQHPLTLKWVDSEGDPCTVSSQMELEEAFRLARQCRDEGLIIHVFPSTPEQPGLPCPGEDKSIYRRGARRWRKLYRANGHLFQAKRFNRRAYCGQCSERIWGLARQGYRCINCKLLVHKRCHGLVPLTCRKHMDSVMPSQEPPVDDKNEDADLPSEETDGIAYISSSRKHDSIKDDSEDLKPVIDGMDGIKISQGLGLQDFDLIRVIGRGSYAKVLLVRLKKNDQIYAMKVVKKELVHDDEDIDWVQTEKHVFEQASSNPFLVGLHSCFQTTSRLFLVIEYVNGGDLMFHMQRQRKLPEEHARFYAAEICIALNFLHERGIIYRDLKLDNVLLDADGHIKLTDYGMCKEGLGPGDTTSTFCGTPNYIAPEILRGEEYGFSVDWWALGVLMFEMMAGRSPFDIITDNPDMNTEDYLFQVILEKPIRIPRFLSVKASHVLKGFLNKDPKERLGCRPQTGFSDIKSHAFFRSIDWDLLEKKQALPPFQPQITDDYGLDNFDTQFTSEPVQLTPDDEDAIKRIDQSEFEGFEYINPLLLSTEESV
Put plainly: Protein kinase C inhibition assay, PKC isoenzyme ζ. The class given is biochemical. The procedure: A protein kinase C (PKC) assay is designed to duplicate the in vivo conditions required for protein kinase C function. Therefore, pH, salt and cofactor concentrations are similar to physiologic levels. Either lysine rich histone H1 (H1) or Myelin basic protein (Mbp) are used in the assay as the phosphorylation acceptor-protein because they are readily available and serve as good substrates for protein kinase C. Enzyme was prepared from baculovirus-insect cell expression systems.
In the screening assay, phosphatidylserine (PS) and DAG were co-sonicated to form unilamellar and multilamellar vesicles. The concentration of lipids in the assay were suboptimal to maximize the detection potential of the assay for inhibitors or activators. Potential effector compounds were added to the assay in dimethylsulfoxide at four concentrations to give final inhibitor concentrations of 1, 10, 50, and 150 μM, respectively.
The assay was started with the addition of enzyme and stopped after 10 min by the addition of 25% trichloroacetic acid (TCA) and 1.0 mg/ml bovine serum albumin (BSA). The radioactive histone product was retained and washed on glass fiber filters that allow the unreacted P-ATP to pass through. The amount of phosphorylation was determined by measuring radioactivity with a scintillation counter. Controls were included in every assay to measure background activity in the absence of enzyme, activity in the absence of lipids, and the maximum enzyme activity with saturating levels of the activator lipids.
Results of the protein kinase C assay are shown in Table 4 in columns labeled α, βII, γ, δ, ε, and .zeta. which represent various PKC isoenzymes. Results are show as IC50, which is the concentration of test compound needed to inhibit 50% of the protein kinase C activity in controls.

The structures appear in SMILES notation. pIC50: −log10 of the molar value. Like-named read-outs stand apart in the source and are kept apart here.

Broadly, the pIC50 is the IC50 on a negative log10 scale, so that one unit is a factor of ten. Take `COc1cc(NS(=O)(=O)c2ccc(N=C3C=C(Nc4ccc(S(=O)(=O)Nc5cc(OC)nc(OC)n5)cc4)C(=O)c4ccccc43)cc2)nc(OC)n1` [Compound 6g]: under “read-out: IC50 PKC .zeta.”, the pIC50 was 4.55.

Regarding `O=C1C(Nc2ccc(S(=O)(=O)Nc3ccccn3)cc2)=CC(=Nc2ccc(S(=O)(=O)Nc3ccccn3)cc2)c2ccccc21` [Compound 3i], under “read-out: IC50 PKC .zeta.”, the pIC50 is below 3.82.

Consider `Cc1cc(C)nc(NS(=O)(=O)c2cc(N=C3C=C(Nc4ccc(C)c(S(=O)(=O)Nc5cc(C)cc(C)n5)c4)C(=O)c4ccccc43)ccc2C)c1` [Compound 6ag], for which the pIC50 (read-out: IC50 PKC .zeta.) is below 3.82.

As for `COc1ccc(NS(=O)(=O)c2ccc(N=C3C=C(Nc4ccc(S(=O)(=O)Nc5ccc(OC)nn5)cc4)C(=O)c4ccccc43)cc2)nn1` [Compound 6j], under “read-out: IC50 PKC .zeta.”, the pIC50 was 4.31.

For the compound `O=C1C(Nc2ccc(S(=O)(=O)NCc3ccccn3)cc2)=CC(=Nc2ccc(S(=O)(=O)NCc3ccccn3)cc2)c2ccccc21` [Compound 3n], the pIC50 (read-out: IC50 PKC .zeta.) is below 3.82.

As to `Cc1ccnc(NS(=O)(=O)c2ccc(N=C3C=C(Nc4ccc(S(=O)(=O)Nc5nccc(C)n5)cc4)C(=O)c4ccccc43)cc2)n1` [Compound 6f], the pIC50 (read-out: IC50 PKC .zeta.) is 4.46.

Turning to `O=C1C(Nc2ccc(S(=O)(=O)Nc3ccc(Cl)nn3)cc2)=CC(=Nc2ccc(S(=O)(=O)Nc3ccc(Cl)nn3)cc2)c2ccccc21` [Compound 3l], where the note is “read-out: IC50 PKC .zeta.”, the pIC50 is 4.55.

`Cc1nnc(NS(=O)(=O)c2ccc(N=C3C=C(Nc4ccc(S(=O)(=O)Nc5nnc(C)s5)cc4)C(=O)c4ccccc43)cc2)s1` [Compound 6e]: for the setting “read-out: IC50 PKC .zeta.”, the pIC50 is 4.70.

On to `Cc1cc(C)nc(NC(=O)c2ccc(N=C3C=C(Nc4ccc(C(=O)Nc5cc(C)cc(C)n5)cc4)C(=O)c4ccccc43)cc2)c1` [Compound 3ah], for which the pIC50 (read-out: IC50 PKC .zeta.) was below 3.82.

The compound `O=C1C(Nc2ccc(S(=O)(=O)NCCNc3ccc([N+](=O)[O-])cn3)cc2)=CC(=Nc2ccc(S(=O)(=O)NCCNc3ccc([N+](=O)[O-])cn3)cc2)c2ccccc21` [Compound 3ac] showed a pIC50 (IC50 PKC .zeta.) below 3.82.

Consider `Cc1cc(C)nc(NS(=O)(=O)c2ccc(N=C3C=C(Nc4ccc(S(=O)(=O)Nc5nc(C)cc(C)n5)cc4)C(=O)c4ccccc43)cc2)n1` [Compound 6c], for which the negative logarithm of the IC50 (pIC50) (read-out: IC50 PKC .zeta.) was 3.88.

Regarding `Cc1cc(C)nc(NC(=O)c2ccc(N=C3C=C(Nc4ccc(C(=O)Nc5nc(C)cc(C)n5)cc4)C(=O)c4ccccc43)cc2)n1` [Compound 3ai], the pIC50 (read-out: IC50 PKC .zeta.) is below 3.82.

Turning to `O=C1C(Nc2ccc(S(=O)(=O)Nc3ccc(Cl)nn3)cc2)=CC(=Nc2ccc(S(=O)(=O)Nc3ccc(Cl)nn3)cc2)c2ccccc21` [Compound 6l], the pIC50 (read-out: IC50 PKC .zeta.) was 5.05.

In the case of `COc1cnc(NS(=O)(=O)c2ccc(N=C3C=C(Nc4ccc(S(=O)(=O)Nc5ncc(OC)cn5)cc4)C(=O)c4ccccc43)cc2)nc1` [Compound 6h], under “read-out: IC50 PKC .zeta.”, the pIC50 was 4.33.

Turning to `COc1ccc(NS(=O)(=O)c2ccc(N=C3C=C(Nc4ccc(S(=O)(=O)Nc5ccc(OC)nn5)cc4)C(=O)c4ccccc43)cc2)nn1` [Compound 3j], the pIC50 (read-out: IC50 PKC .zeta.) is below 3.82.

For `COc1cc(NS(=O)(=O)c2ccc(N=C3C=C(Nc4ccc(S(=O)(=O)Nc5cc(OC)cc(OC)c5)cc4)C(=O)c4ccccc43)cc2)cc(OC)c1` [Compound 3af], where the note is “read-out: IC50 PKC .zeta.”, the pIC50 was below 3.82.

For `O=C1C(Nc2ccc(S(=O)(=O)Nc3cnc4ccccc4n3)cc2)=CC(=Nc2ccc(S(=O)(=O)Nc3cnc4ccccc4n3)cc2)c2ccccc21` [Compound 6m], under “read-out: IC50 PKC .zeta.”, the pIC50 was 5.05.

In the case of `Cc1cc(C)nc(NS(=O)(=O)c2cc(N=C3C=C(Nc4ccc(C)c(S(=O)(=O)Nc5cc(C)cc(C)n5)c4)C(=O)c4ccccc43)ccc2C)c1` [Compound 3ag], the pIC50 (read-out: IC50 PKC .zeta.) was 4.55.

`Cc1cc(C)nc(NS(=O)(=O)c2cccc(N=C3C=C(Nc4cccc(S(=O)(=O)Nc5cc(C)cc(C)n5)c4)C(=O)c4ccccc43)c2)c1` [Compound 3ae]: for the setting “read-out: IC50 PKC .zeta.”, the pIC50 was below 3.82.

With `O=C1C(Nc2ccc(S(=O)(=O)Nc3cnc4ccccc4n3)cc2)=CC(=Nc2ccc(S(=O)(=O)Nc3cnc4ccccc4n3)cc2)c2ccccc21` [Compound 3m], the pIC50 (read-out: IC50 PKC .zeta.) was 4.55.
